From patent EP0422618A1, “Polysaccharides with antiphlogistic activity, method for obtaining them and pharmaceutical compositions containing the same” (LOMAPHARM Rudolf Lohmann GmbH KG Pharmazeutische Fabrik, priority 1989, dated 1991)

Tested on: Carrageenan induzierten Rattenpfotenödem
Test: Carrageenan-induced rat paw oedema test
Type: in vivo, Ratte
Details: 10 mg/kg i.v.
Text: Die antiphlogistische Wirkung der erfindungsgemäßen Polysaccharide wurde im Carrageenan induzierten Rattenpfotenödemtest untersucht (Winter, C.A. et al., Proc. Soc. Exp. Biol. Med. 111, 544 (1962)).

COc1ccc2c(c1)c(CC(=O)O)c(C)n2C(=O)c1ccc(Cl)cc1 [Indometacin] was tested, and the “Hemmung des Rattenpfotenödems nach 8 Stunden” value was “Indometacin 10 mg/kg i.v. 22,9%”.
